What was measured:
[1] = SCOT trial outcomes / event free survival analysis; type: in vivo, human; conditions: CYC arm, median split, P=0.04
From the text: (§1) The SCOT trial compared the therapeutic outcomes of myeloablative CD34+selected autologous HSCT and CYC in severe diffuse SSc patients (for study design details of SCOT trial, see Sullivan K. M. et al., N Engl J Med. 2018 Jan. 4; 378(1): 35-47. doi: 10.1056/nejmoa1703327. [PMID: 29298160]). The trial provided gene expression in the peripheral blood cells (PBCs) from 30 SSc patients who completed HSCT treatment, 33 patients who completed CYC treatment, and 28 healthy controls (Franks J. M. et al., Ann Rheum Dis. 2020 Sep. 15; annrheumdis-2020-217033. doi: 10.1136/annrheumdis-2020-217033. Online ahead of print. [PMID: 32933919]). In the current study, Applicant analyzed the longitudinal expression profile of SCOT patients from baseline to 54 months. 20 month and 26 month data were merged (referred to as 20/26 months), and 48 month and 54 month data were merged (referred to as 48/54 months).
Survival analysis was performed using the “survival” R package based on gene level data. Only the baseline gene expression data were considered for these analyses. Patients were divided into two groups using the median expression value of a given gene as cutoff Briefly, high expression group is patients' gene expression greater than or equal to the median value and low expression group is patients' gene expression lower than the median value. […]

ACVR1C = test: SCOT trial longitudinal PBC gene expression: ACVR1C; type: in vivo, human; conditions: PBCs of SSc patients, baseline to 48/54 months, imputed data
From the text: as §1
(§2) To reduce the statistical bias of downstream comparisons, Applicant applied seasonal adjustment and linear interpolation to impute those missing time points. The “imputeTS” R package was used. Patients with only baseline gene expression data and no longitudinal samples were not imputed (n=20; 32% of participants; 10 for cyclophosphamide and 10 for transplant).

Interleukin 6 (IL6) = test: SCOT trial longitudinal PBC gene expression: IL6; type: in vivo, human; conditions: PBCs of SSc patients
From the text: as §1, §2

TGF beta = conditions: cited from earlier work

| Compound | hazard ratio (HR) for EFS, higher vs lower baseline CLCF1 expression [1] | ACVR1C expression over time (ACVR1C) | IL6 expression over time (Interleukin 6 (IL6)) | SSc biomarkers (TGF beta; SSc patients) | clinical symptoms (TGF beta; SSc patients) | trial result (TGF beta; SSc) |
| --- | --- | --- | --- | --- | --- | --- |
| O=P1(N(CCCl)CCCl)NCCCO1 (stereo not drawn) [CYC, cyclophosphamide] | 3.15 | flat trend | increased | – | – | – |
| fresolimumab: anti-TGF beta monoclonal antibody therapy | – | – | – | decreased | improved | promising results |
